Here are results for 35 compounds from ChEMBL document CHEMBL1157539, “Thousands of chemical starting points for antimalarial lead identification” (Nature, 2010).

Structures are written as SMILES.

The test has as its system Plasmodium falciparum. The test is described as follows: GSK_TCMDC: Inhibition of Plasmodium falciparum 3D7 in whole erythrocytes, using parasite LDH activity as an index of growth. The format is functional, organism-based. Conditions: Plasmodium falciparum, 3D7.
For `CO/C(=C\C=C/c1cc2cc(Cl)c(Cl)cc2[nH]1)C(=O)NC1CC(C)(C)N(C)C(C)(C)C1`, the XC50 is 833 nM.

Consider `Cc1nnc2sc(-c3cccc(NC(=O)c4ccc(N5CCCCC5)c([N+](=O)[O-])c4)c3)nn12`, for which the XC50 was 1300 nM.

On to `O=C(N[C@@H](CC1CCCCC1)C(=O)NCCN1CCOCC1)c1ccc(O)c(-c2ccc(Cl)c(Cl)c2)c1`, for which the XC50 is 181 nM.

`COc1cc2c(c(Cl)c1OC)CCN(C(=O)C(F)(F)F)CC2c1ccccc1` (stereo not given) yielded an XC50 of 441 nM.

Regarding `N#Cc1ccc2c(c1)CN(CCC1CCC(NC(=O)c3cc4ccccc4cc3N)CC1)CC2` (stereo not given), the XC50 worked out at 1040 nM.

In turn, `Cc1cc(C(F)(F)F)cc(-n2ncc(-c3ccc(C(=O)NCCNCc4ccccc4)cc3)c2N)n1` returned an XC50 of 1070 nM.

Compound `O=C(/C=C/c1ccc(Cl)c(Cl)c1)N1CCC(CCCN2CCC(c3c[nH]c4ccccc34)CC2)CC1` returned an XC50 of 707 nM.

Take `Cc1cccc2nc(-c3cccc(-c4ccc(C(=O)NCCc5ccc(O)c(=O)[nH]5)cc4)c3)[nH]c12`: the XC50 stood at 1190 nM.

`CC(=O)c1ccc(NC(=O)CSc2nc(-c3ccccc3Cl)ns2)cc1` had an XC50 of 1130 nM.

`COc1cccc(NC(=O)Nc2ccc(Nc3nc(C)cc(N4CCCC4)n3)cc2)c1` displayed an XC50 of 198 nM.

Turning to `O=S(=O)(NCCCN1CCOCC1)c1ccc2nccc(Nc3ccc(Oc4ccccc4)cc3)c2c1`, the XC50 was 855 nM.

`COC(=O)c1ccccc1N1CCN(CCCCNC(=O)c2ccc(NC(=O)c3cc(Cl)cc(Cl)c3)cc2)CC1` gave an XC50 of 558 nM.

`O=C(Nc1ccc(-c2nc3ccccc3[nH]2)cc1)c1ccc(Cl)s1` returned an XC50 of 595 nM.

For `O=C(NCCCN1CCC(Cc2ccccc2)CC1)c1cc2c(Cl)nc3ccccc3c2s1`, the XC50 stood at 744 nM.

Regarding `O=C1CCCN1CCCNCc1ccc(-c2ccc(-c3nc4cc(C(F)(F)F)ccc4[nH]3)s2)cc1`, the XC50 is 380 nM.

As to `O=C(Nc1cncc(NC(=O)c2ccc(Cl)c(Cl)c2)c1)c1ccc(Cl)c(Cl)c1`, the XC50 was determined as 730 nM.

Compound `COc1cc2nc(NCc3nc4ccccc4[nH]3)nc(N)c2cc1OC` came in with an XC50 of 885 nM.

Turning to `COc1cc(Cc2cnc(N)nc2N)cc(OCCCCCCN2C(=O)c3ccccc3C2=O)c1OC`, the XC50 came to 1100 nM.

Compound `CC(C)COc1ccc(Cl)cc1Cc1ccc(-c2nc3cc(F)c(F)cc3[nH]2)o1` displayed an XC50 of 894 nM.

`COc1cccc(Nc2nc(Nc3cccc(C#N)c3)cc(C(F)(F)F)n2)c1` registered an XC50 of 834 nM.

Consider `COc1cc(C(=O)Nc2cccc(-c3nc4ccccc4[nH]3)c2)cc(OC)c1OC`, for which the XC50 amounted to 723 nM.

For `COc1ccc2nccc([C@@H](O)CN3CCC(NC(=O)c4cc5cccnc5[nH]4)CC3)c2c1`, the XC50 was 894 nM.

In turn, `CN(Cc1cccc(O)c1)C1CCN(c2cc(NC(=O)c3ccc(F)cc3)ccn2)C1` (stereo not given) showed an XC50 of 1150 nM.

As to `Cc1cc(C(=O)OCC(N)=O)c(C)n1-c1ccc(F)cc1`, the XC50 amounted to 331 nM.

Consider `O=C(Nc1ccc(Cl)c(Cl)c1)Nc1cc(C(F)(F)F)ccc1Cl`, for which the XC50 stood at 1440 nM.

As to `Cc1sc2ccc(Cl)cc2c1S(=O)(=O)Nc1ccc2nccc(N3CC(C)NC(C)C3)c2c1` (stereo not given), the XC50 amounted to 114 nM.

The compound `Cc1ccccc1Nc1cc(Nc2ccccc2C)c2ccccc2n1` returned an XC50 of 782 nM.

`CC(C)CC(=O)Nc1cc(=O)[nH]c2nc(-c3ccccc3)nn12` registered an XC50 of 351 nM.

Compound `COc1ccc2nc3cc(Cl)ccc3c(Nc3ccc(O)c(CNC(C)C)c3)c2c1` gave an XC50 of 140 nM.

On to `CC(=O)Nc1[nH]c(-c2ccccc2)nc1C(N)=O`, for which the XC50 was 249 nM.

Regarding `COc1ccc2nccc([C@@H](O)CN3CCC(NCc4ccc5c(n4)NCCC5)CC3)c2c1`, the XC50 was found to be 738 nM.

`CN1CCN(Cc2ccc(-c3ccc4c(Nc5cc(O)c(F)cc5Cl)ccnc4c3)o2)CC1` showed an XC50 of 132 nM.

`CN(C)C=Nc1ccc(OCCCCCCOc2ccc(N=CN(C)C)cc2)cc1` gave an XC50 of 132 nM.

The compound `CC(=O)c1cccc(NC(=O)N2CCCN(CCCCCNC(=O)/C=C/c3ccc(Cl)c(Cl)c3)CC2)c1` yielded an XC50 of 1010 nM.

As to `CS(=O)(=O)Nc1cccc(-c2cnc3[nH]cc(-c4ccc(CCC(=O)O)cc4)c3c2)c1`, the XC50 stood at 1060 nM.
